US12419889B2, “Methods of treating chronic spontaneous urticaria using a bruton's tyrosine kinase inhibitor” (NOVARTIS AG, priority 2019, dated 2025)

Columns and labels:
BTK [1] = target: T1, BTK (Rattus norvegicus, UniProt Q5S255); test: BTK occupancy ex vivo immunoassay in rat tissues after oral dosing
T1 construct: Unoccupied BTK, as well as total BTK relative protein levels were determined in lysates of selected tissues; from tissue; host or cells: rat spleen, blood, lymph nodes, lung
Experimental: The in vivo PD effects of an irreversible BTK inhibitor like compound (I) are determined by the extent and duration of covalent BTK occupancy by the inhibitor. BTK occupancy after treatment with Compound of Formula (I) (also referenced to as Compound (I)) was measured in an ex vivo immunoassay. The fraction of unoccupied BTK protein was assayed after in vitro incubation with a covalent biotinylated BTK probe, since compound (I) and the probe bind to BTK in a mutually exclusive manner. Unoccupied BTK, as well as total BTK relative protein levels were determined in lysates of selected tissues and levels of unoccupied BTK were normalized to total BTK protein levels in the same samples.
From the experimental data it was apparent that a short transient systemic exposure of compound (I) is sufficient to achieve full BTK occupancy in several tissues at low oral doses of 1-3 mg/kg. […] This very low and transient systemic exposure is consistent with the PK/PD model typical of irreversible inhibitors.
The duration of BTK occupancy was determined in rats and mice after single oral dose of compound (I) for spleen, blood, lymph nodes and lung. […] The longer persistence of BTK occupancy in blood has been reported before (Advani et al 2013, J Clin Onc; 31(1):88-94).

[2] = tested on: allergen response (wheal size); test: Skin prick test (SPT) in healthy atopic subjects; assay type: in vivo, human; details: 10 mg q.d.
Experimental: The ability of compound (I) to inhibit a defined allergen response has been evaluated by means of the skin prick test (SPT) in healthy atopic subjects in the MAD study part of the first in human study. SPT was performed prior to dosing (at screening, baseline and pre-dose on Day 1) and at different time points after the first dose (Day 1) and after 11 days of once daily dosing (Day 12).

BTK [3] = target: T2, BTK (Homo sapiens, UniProt Q06187); test: BTK occupancy in human whole blood (free and total BTK, ELISA on MSD platform); assay type: in vivo
T2 construct: from tissue; host or cells: human whole (peripheral) blood of healthy volunteers and atopic subjects
Experimental: Pharmacodynamics (PD) was characterized by assessing target occupancy and distal pathway inhibition. Measurements of BTK occupancy in human whole blood (derived as ratio of free and total BTK), served as direct marker of therapeutic target engagement.
Compound of formula (I) is an irreversible inhibitor of BTK, the extent and duration of BTK occupancy were determined.
The relationship between dose and pharmacodynamics was characterized by measurements of BTK occupancy in human blood (derived as ratio of free and total BTK), a direct marker of therapeutic target engagement. BTK occupancy was determined for single ascending doses ranging 0.5 to 400 mg, for q.d. multiple ascending doses ranging from of 10 mg and 400 mg, and for b.i.d. multiple ascending doses of 100 mg and 200 mg.

[4] = tested on: mast cell FcγRIII-mediated inflammation; test: Reverse passive Arthus (RPA) model, skin swelling; assay type: in vivo; details: mouse RPA
Experimental: The duration of the PD effect in skin after single dose was assessed in the reverse passive Arthus (RPA) model of mast cell FcγRIII—mediated inflammation. In this RPA model, a polyclonal IgG antibody is injected locally into the dermis, while the soluble antigen is given systemically by i.v. injection. In this mouse model, mast cell FcγRIII has a dominant role with only minor contributions by the complement system (Hazenbos et al. 1998, journal of immunology, 161(6), pp. 3026; Hazenbos et al., Immunity, 1996, 5(2), pp. 181; Köhl & Gessner 1999, Molecular immunology, 36(13-14), pp. 893; Sylvestre & Ravetch 1996, Immunity, 5(4), pp. 387; Sylvestre & Ravetch 1994, Science, 265(5175), pp. 1095). It has been shown that genetic BTK deficient mice are protected in the passive Arthus skin reaction (Fiedler et al. 2011, blood, 117(4), pp. 1329).
Oral treatment with compound (I) at a single dose of 3, 10, 30 and 100 mg/kg, given 2 hours prior to induction of the RPA response, reduced skin swelling in a dose-related manner. […] (FIG. 2)
In this model, the inhibition of skin swelling was maximal when compound (I) was dosed 2 hours prior to eliciting the Arthus reaction. The effect diminished gradually and reached baseline when the Arthus reaction was triggered 45 hours or later after compound (I) dosing.

[5] = tested on: passive cutaneous anaphylaxis (PCA); test: Passive cutaneous anaphylaxis (PCA) model, Evans blue extravasation; assay type: in vivo; details: mouse PCA
Experimental: The effects of compound (I) on acute skin hypersensitivity were also assessed after two oral doses of compound (I) in the mouse of model of passive cutaneous anaphylaxis (PCA) (Ovary 1958). The mouse PCA model was used at a low dose of sensitizing IgE antibody to minimize complement-dependent anaphylatoxins (Schafer et al. 2013, The journal of allergy and clinical immunology, 131(2), pp. 541; Hata et al. 1998, Journal of Experimental Medicine, 187(8), pp. 1235). […] (FIG. 3). Spleen occupancy at 2.5 hours post last dose ranged from 89.1 to 99.7% (representing peak occupancy) (FIG. 4).

T1 sequence (Q5S255 1-660): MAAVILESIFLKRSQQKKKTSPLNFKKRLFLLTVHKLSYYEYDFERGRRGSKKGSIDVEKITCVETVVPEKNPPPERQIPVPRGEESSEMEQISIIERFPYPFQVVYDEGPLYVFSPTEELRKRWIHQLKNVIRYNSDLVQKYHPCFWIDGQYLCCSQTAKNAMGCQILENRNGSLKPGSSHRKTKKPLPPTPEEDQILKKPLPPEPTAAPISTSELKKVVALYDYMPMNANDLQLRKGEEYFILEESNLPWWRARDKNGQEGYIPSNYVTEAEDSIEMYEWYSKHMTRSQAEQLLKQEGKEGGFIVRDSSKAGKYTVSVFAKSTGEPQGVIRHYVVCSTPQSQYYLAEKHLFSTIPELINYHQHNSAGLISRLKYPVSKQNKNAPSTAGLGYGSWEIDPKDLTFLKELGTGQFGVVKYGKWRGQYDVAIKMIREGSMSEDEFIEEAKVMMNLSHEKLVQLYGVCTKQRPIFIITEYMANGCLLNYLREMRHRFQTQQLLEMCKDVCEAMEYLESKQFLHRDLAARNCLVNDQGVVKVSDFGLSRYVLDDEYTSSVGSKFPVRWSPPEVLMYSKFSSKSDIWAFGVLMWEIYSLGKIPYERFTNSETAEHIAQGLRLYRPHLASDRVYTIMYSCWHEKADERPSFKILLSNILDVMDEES
T2 sequence (Q06187 whole entry): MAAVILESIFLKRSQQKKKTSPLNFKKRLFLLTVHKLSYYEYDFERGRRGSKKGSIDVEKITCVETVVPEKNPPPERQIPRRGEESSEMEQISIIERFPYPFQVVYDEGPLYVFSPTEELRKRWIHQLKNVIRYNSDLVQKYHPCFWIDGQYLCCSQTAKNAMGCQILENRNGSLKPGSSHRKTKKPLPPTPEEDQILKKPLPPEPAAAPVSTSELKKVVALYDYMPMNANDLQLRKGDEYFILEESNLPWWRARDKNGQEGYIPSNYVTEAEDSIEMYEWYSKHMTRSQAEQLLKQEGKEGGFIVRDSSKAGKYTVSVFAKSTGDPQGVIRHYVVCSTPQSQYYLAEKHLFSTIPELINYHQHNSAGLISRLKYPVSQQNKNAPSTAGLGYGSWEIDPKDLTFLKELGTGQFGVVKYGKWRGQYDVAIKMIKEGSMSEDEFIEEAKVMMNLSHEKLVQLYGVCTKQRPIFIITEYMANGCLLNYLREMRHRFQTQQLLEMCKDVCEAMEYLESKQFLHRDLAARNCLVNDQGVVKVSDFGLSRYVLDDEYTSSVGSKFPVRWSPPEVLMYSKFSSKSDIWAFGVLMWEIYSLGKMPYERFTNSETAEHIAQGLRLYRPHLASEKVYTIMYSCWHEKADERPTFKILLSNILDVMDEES

SMILES: C=CC(=O)N(C)CCOc1c(N)ncnc1-c1cc(F)cc(NC(=O)c2ccc(C3CC3)cc2F)c1C [Compound (I), N-(3-(6-Amino-5-(2-(N-methylacrylamido)ethoxy)pyrimidin-4-yl)-5-fluoro-2-methylphenyl)-4-cyclopropyl-2-fluorobenzamide]
- spleen BTK occupancy (BTK [1]; female rats, single oral dose 3 mg/kg): full
- BTK occupancy half-life in spleen (BTK [1]; rat spleen, single oral dose, estimated): approximately 5 hours
- BTK occupancy half-life in blood (BTK [1]; rats, single oral dose): approximately 87 hours
- inhibition of wheal size in SPT [2]: minimal inhibition
- BTK occupancy in blood (BTK [3]; 10 mg q.d.): nearly complete
- duration of BTK occupancy in blood (BTK [3]; blood): > 24 h
- median BTK turnover T1/2 (BTK [3]; blood, after single dose): about 48 hours
- time to refresh BTK protein pool to pre-dose levels (BTK [3]; blood, after single dose): about 10 days
- duration of sustained BTK occupancy (BTK [3]; blood, single doses of 30 mg and higher): > 24 h
- time of peak target (BTK) occupancy post dose (BTK [3]; peripheral blood): 0.5 h
- time between dosing and Arthus trigger at which the effect reached baseline ([4]; single dose): ≥ 45 h
- inhibition of skin swelling ([4]; single oral dose 3 mg/kg 2 hours prior to induction): 22.9 % inhibition
- inhibition of skin swelling ([4]; single oral dose 10 mg/kg 2 hours prior to induction): 29.2 % inhibition
- inhibition of skin swelling ([4]; single oral dose 30 mg/kg 2 hours prior to induction): 73.0 % inhibition
- inhibition of skin swelling ([4]; single oral dose 100 mg/kg 2 hours prior to induction): 61.2 % inhibition
- inhibition of skin edema (Evans blue extravasation) ([5]; two oral doses of 3 mg/kg 14 and 2 hours before challenge): 60.7%
- inhibition of skin edema (Evans blue extravasation) ([5]; two oral doses of 10 mg/kg 14 and 2 hours before challenge): 66.9%
- inhibition of skin edema (Evans blue extravasation) ([5]; two oral doses of 30 mg/kg 14 and 2 hours before challenge): 69.2%
- inhibition of skin edema (Evans blue extravasation) ([5]; two oral doses of 100 mg/kg 14 and 2 hours before challenge): 87.4%
